Reference: ChEMBL document CHEMBL1201862, “PubChem BioAssay data set” (2004)
Activity calls are given as the source filed them.

Experiments:
[1] = biological target: T1, Corticotropin-releasing factor receptor 2/Corticotropin-releasing factor-binding protein (Homo sapiens, UniProt P24387+Q13324); test: Dose Response confirmation of uHTS hits for small molecule antagonists of the CRF-binding protein and CRF-R2 receptor complex.; format: functional; settings: read-out: IC50_Mean
T1 sequence (Q13324 whole entry): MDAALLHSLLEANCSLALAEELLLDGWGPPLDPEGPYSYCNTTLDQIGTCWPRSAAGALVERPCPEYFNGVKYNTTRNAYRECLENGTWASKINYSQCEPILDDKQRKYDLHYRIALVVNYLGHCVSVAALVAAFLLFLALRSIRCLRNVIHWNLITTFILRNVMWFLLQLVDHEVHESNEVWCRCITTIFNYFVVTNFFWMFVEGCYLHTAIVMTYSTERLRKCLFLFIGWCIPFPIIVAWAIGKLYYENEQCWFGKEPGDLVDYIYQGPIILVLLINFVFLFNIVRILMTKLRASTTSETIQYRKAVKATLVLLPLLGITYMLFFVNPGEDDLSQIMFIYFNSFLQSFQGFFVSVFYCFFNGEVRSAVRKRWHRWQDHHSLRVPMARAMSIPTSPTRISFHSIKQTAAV
T1 sequence (P24387 whole entry): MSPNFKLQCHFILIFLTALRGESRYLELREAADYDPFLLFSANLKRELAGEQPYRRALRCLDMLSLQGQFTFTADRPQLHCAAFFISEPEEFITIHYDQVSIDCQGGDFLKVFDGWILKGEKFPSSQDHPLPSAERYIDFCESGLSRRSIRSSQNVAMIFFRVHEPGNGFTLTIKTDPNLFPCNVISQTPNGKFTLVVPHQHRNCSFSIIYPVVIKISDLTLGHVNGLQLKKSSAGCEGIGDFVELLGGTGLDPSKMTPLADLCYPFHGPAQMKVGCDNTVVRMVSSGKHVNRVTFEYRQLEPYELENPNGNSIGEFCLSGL

[2] = biological target: T1, Corticotropin-releasing factor receptor 2/Corticotropin-releasing factor-binding protein; test: activators of CRF receptor 2 with binding protein – uHTS hits, confirmation (AID 602473); format: functional; settings: read-out: EC50_Mean
[3] = Luminescence Cell-Based Dose Response HTS to Identify Activators of Luciferase Translation or Activity in H4 […] Cells. [Related pubchem assays: 1829 (Project Summary), 1814 (Primary HTS)]; format: functional
[4] = system: H4; test: Luminescence Cell-Based Dose Response HTS to Identify Activators of 5'UTR Stem-Loop Driven Prion Protein mRNA Translation in H4 Neuroglioblastoma Cells. [Related pubchem assays: 1829 (Project Summary), 1814 (Primary HTS)]; format: functional; settings: Homo sapiens
[5] = Luminescence Cell-Based Dose Confirmation HTS to Identify Activators of 5'UTR Stem-Loop Driven Alpha-Synuclein mRNA Translation in H4 Neuroglioblastoma Cells. [Related pubchem assays: 1829 (Project Summary), 1814 (Primary HTS)]; format: functional
[6] = biological target: T2, Cytochrome P450 1A2 (Homo sapiens, UniProt P05177);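 also: PubChem cytochrome P450 panel assay, CYP1A2 panel member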
T2 sequence (P05177 whole entry): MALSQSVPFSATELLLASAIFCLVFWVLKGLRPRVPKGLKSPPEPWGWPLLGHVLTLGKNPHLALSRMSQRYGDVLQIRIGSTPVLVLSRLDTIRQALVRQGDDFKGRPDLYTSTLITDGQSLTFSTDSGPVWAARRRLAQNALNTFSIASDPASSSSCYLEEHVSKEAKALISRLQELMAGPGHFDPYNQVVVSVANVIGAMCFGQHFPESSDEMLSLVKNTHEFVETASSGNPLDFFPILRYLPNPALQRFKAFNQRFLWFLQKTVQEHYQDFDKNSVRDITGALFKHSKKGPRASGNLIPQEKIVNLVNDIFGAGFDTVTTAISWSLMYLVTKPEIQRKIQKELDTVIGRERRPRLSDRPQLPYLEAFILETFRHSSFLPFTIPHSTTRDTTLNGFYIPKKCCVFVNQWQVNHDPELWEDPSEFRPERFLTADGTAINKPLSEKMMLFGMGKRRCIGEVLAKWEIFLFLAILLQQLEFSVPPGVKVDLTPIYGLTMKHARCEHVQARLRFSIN

[7] = biological target: Cytochrome P450 3A4 (Homo sapiens, UniProt P08684);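 also: CYP3A4 tested as one member of a cytochrome P450 panel screen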
Sequence of Cytochrome P450 3A4 (P08684 whole entry): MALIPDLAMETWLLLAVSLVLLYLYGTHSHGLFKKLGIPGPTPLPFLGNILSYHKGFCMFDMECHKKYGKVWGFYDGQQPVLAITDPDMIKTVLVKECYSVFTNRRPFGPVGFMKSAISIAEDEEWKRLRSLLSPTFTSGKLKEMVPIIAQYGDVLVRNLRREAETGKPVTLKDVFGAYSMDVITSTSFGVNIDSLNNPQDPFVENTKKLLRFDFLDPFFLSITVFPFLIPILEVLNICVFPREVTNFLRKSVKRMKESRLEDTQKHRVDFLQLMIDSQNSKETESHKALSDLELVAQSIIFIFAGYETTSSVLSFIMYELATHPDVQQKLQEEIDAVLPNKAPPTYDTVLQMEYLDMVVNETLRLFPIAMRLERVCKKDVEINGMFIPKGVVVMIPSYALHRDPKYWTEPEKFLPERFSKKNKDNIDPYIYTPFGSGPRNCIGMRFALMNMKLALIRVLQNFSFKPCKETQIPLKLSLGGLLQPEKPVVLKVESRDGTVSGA

[8] = biological target: Cytochrome P450 2C9 (Homo sapiens, UniProt P11712)
Sequence of Cytochrome P450 2C9 (P11712 whole entry): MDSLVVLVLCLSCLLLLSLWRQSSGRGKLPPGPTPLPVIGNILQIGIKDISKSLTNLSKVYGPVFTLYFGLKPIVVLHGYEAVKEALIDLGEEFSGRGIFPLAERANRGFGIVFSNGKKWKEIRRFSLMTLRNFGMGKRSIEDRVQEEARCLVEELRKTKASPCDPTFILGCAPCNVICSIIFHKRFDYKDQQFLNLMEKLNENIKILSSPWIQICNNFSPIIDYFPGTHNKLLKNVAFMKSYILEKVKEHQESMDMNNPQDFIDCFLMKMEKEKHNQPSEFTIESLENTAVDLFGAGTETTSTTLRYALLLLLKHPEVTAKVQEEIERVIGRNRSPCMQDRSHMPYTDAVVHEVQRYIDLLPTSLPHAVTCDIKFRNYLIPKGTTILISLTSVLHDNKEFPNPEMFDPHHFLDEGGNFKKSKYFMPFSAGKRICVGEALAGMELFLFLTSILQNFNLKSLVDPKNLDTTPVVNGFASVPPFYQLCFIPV

[9] = biological target: Cytochrome P450 2C19 (Homo sapiens, UniProt P33261); test: Cytochrome panel assay with activity outcomes. Panel member name: p450-cyp2c19 Compounds with AC50 equal or less than 10 uM are considered active; format: functional
Sequence of Cytochrome P450 2C19 (P33261 whole entry): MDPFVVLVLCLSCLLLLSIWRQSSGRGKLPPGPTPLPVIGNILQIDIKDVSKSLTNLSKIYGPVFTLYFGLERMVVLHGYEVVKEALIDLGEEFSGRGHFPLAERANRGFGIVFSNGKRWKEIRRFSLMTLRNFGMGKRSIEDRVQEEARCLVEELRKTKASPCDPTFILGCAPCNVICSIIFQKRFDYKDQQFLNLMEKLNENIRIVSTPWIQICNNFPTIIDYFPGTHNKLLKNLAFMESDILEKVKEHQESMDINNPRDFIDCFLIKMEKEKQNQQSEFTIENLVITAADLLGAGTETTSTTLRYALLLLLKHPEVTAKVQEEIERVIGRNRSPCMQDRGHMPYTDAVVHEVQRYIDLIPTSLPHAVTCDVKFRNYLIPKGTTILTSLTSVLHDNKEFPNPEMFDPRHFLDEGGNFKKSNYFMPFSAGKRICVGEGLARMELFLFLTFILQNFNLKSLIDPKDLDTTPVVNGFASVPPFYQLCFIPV

[10] = biological target: T3, Streptokinase A (Streptococcus pyogenes serotype M1, UniProt P10520); test: viability-normalized secreted streptokinase activity reduction – plasminogen activation absorbance, OD405, dose response (AID 1914); format: functional, Streptococcus pyogenes M1 GAS;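 also: secreted streptokinase activity via plasminogen activation per viability signal from cell pellet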
T3 sequence (P10520 whole entry): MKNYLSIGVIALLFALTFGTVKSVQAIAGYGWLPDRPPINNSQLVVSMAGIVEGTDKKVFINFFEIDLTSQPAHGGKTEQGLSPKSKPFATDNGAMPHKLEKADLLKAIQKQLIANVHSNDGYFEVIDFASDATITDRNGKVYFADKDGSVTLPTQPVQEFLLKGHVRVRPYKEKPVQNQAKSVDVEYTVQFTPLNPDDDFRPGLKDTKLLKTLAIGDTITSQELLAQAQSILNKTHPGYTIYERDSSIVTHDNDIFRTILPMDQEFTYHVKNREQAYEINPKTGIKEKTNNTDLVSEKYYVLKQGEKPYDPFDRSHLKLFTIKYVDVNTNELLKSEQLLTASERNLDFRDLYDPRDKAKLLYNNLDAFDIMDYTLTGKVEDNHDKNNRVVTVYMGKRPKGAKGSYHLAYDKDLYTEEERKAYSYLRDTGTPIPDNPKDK

[11] = system: Streptococcus sp. 'group A'; test: Streptococcus pyogenes SK(-)GAS viability under kanamycin – luminescence, BacTiterGlo, confirmation, counter-screen for streptokinase expression inhibitor project, dose response (AID 1900); format: functional, organism-based
[12] = system: Streptococcus; test: GAS UMAA2166 growth inhibition – luminescence, BacTiterGlo, counter-screen for streptokinase expression inhibitor project, dose response (AID 1915); format: functional, organism-based;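 also: potency for reduction of bacterial viability or growth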
[13] = biological target: Cytochrome P450 2D6 (Homo sapiens, UniProt P10635);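 also: CYP2D6 member of a cytochrome P450 panel assay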
Sequence of Cytochrome P450 2D6 (P10635 whole entry): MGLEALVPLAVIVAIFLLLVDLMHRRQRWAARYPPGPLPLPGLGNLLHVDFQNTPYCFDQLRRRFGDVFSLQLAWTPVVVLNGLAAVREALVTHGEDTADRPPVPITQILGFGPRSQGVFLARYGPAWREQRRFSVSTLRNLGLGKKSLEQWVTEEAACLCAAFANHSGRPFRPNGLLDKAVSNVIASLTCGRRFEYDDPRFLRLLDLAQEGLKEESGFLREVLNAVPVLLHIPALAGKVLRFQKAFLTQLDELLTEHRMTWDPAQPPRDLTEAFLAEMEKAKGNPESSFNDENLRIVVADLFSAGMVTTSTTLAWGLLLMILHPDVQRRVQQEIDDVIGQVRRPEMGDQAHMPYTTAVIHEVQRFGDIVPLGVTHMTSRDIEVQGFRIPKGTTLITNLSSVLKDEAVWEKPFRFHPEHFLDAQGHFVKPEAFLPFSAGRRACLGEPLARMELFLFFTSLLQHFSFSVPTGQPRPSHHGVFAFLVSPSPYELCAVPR

[14] = P. falciparum Dd2 growth inhibitors, dose response, SYBR Green, cherry-picked samples (AID 1159567); format: functional, cell-based

Row | SMILES | IC50 [1] | EC50 [2] | AC50 [7] | other results
1 | O=[N+]([O-])/C(C(Cl)=C(Cl)Cl)=C(/NC1CC1)Sc1ccccc1 | > 47.1 µM (inactive) | > 53 µM (inactive) | – | –
2 | CS(=O)(=O)Nc1nc2n(n1)C(c1ccccc1)CC(c1ccccc1)N2 (centres undefined) | > 47.1 µM (inactive) | > 53 µM (inactive) | – | –
3 | O=S(=O)(c1ccc(Cl)cc1)N1c2ccccc2Oc2nc3ccccc3nc21 | – | – | – | EC50 [3]: > 120 µM (not active); EC50 [4]: > 120 µM (not active); EC50 [5]: > 120 µM (not active)
4 | Cc1ccnc(NC(=S)NC(=O)/C=C/c2ccco2)c1 | – | – | – | EC50 [3]: 9.64 µM (active); EC50 [4]: > 120 µM (not active); EC50 [5]: 0.458 µM (active)
5 | CC[C@H]1C2=C3C(CC[C@H]4C(OC)OC[C@](C)([C@@H]34)N(C(=O)OC(C)(C)C)C2)C(CO)C1CO (some centres undefined) | – | – | 10 µM (inconclusive) | AC50 [6]: 12.6 µM (inconclusive); AC50 [8]: 25.1 µM (inconclusive); AC50 [9]: inconclusive
6 | Cc1ccc(C)c(NC(=S)Nc2ncccc2C)c1 | > 47.1 µM (inactive) | > 53 µM (inactive) | – | –
7 | COc1ccccc1C1C(C(=O)c2sc(C)nc2C)=C(O)C(=O)N1CCN1CCOCC1 (centres undefined) | > 47.1 µM (inactive) | > 53 µM (inactive) | – | –
8 | CCCP(=O)(CC(=O)N(CC)CC)c1ccccc1 (centres undefined) | > 47.1 µM (inactive) | > 53 µM (inactive) | – | –
9 | Cn1c(=O)n(Cc2ccccc2Cl)c2ccccc21 | > 47.1 µM (inactive) | > 53 µM (inactive) | – | –
10 | CCc1ccccc1NC(=O)NC(C)c1ccc2c(c1)OCO2 (centres undefined) | > 47.1 µM (inactive) | > 53 µM (inactive) | – | EC50 [10]: > 150 µM (not active); EC50 [11]: > 150 µM (not active); EC50 [12]: > 150 µM (not active)
11 | O=c1c2ccccc2nc2n1CC/C2=C\c1ccccc1[N+](=O)[O-] | – | – | 10 µM (inconclusive) | AC50 ([9]; read-out: AC50): 3.98 µM (inconclusive)
12 | O=C(O)c1ccccc1-c1ccccc1C(=O)Nc1ccccc1 | – | – | 28.2 µM (inconclusive) | AC50 [8]: 35.5 µM (inconclusive)
13 | COc1ccc(S(=O)(=O)N2CCCC(C(=O)NCc3ccncc3)C2)cc1 (centres undefined) | > 47.1 µM (inactive) | > 53 µM (inactive) | – | –
14 | CSc1ncc(Cl)c(C(=O)Nc2ccc(S(=O)(=O)N3CCOCC3)cc2)n1 | > 47.1 µM (inactive) | > 53 µM (inactive) | – | –
15 | COc1ccc(C2=C(C#N)C(=O)OC2)cc1 | – | – | 31.6 µM (inconclusive) | AC50 [8]: 39.8 µM (inconclusive)
16 | C/C(CCN1CCc2nc(-c3ccccc3)c(-c3ccccc3)cc2C1)=N\OC[C@@H](C)[C@H](OCc1ccccc1)C(C)C | – | – | 3.98 µM (inconclusive) | –
17 | CS(=O)(=O)c1ccccc1COC(=O)Nc1ccc(Cl)cc1 | – | – | 12.6 µM (inconclusive) | AC50 [13]: 10 µM (inconclusive)
18 | CCOC(=O)c1cc(=O)cc(C(=O)OCC)o1 | > 47.1 µM (inactive) | > 53 µM (inactive) | – | –
19 | CCCn1c(=N)c(S(=O)(=O)c2ccccc2)cc2c(=O)n3ccccc3nc21 | > 47.1 µM (inactive) | > 53 µM (inactive) | – | –

Row | SMILES | IC50 [1] | EC50 [2] | AC50 [7] | other results
20 | CCc1ccc(N2CC(C)Cn3c2nc2c3c(=O)n(CCN3CCOCC3)c(=O)n2C)cc1 (centres undefined) | – | – | 39.8 µM (inconclusive) | AC50 [8]: 0.178 µM (inconclusive)
21 | Cc1nc2cnc(N3CCNCC3)nc2n(-c2ccccc2)c1=O | – | – | 31.6 µM (inconclusive) | –
22 | COC(=O)CSc1nc2ccccn2c(=O)c1C=O | – | – | – | EC50 [3]: 18.5 µM (active); EC50 [4]: > 120 µM (inconclusive); EC50 [5]: 28.5 µM (active)
23 | Cc1cc(-c2cccc([N+](=O)[O-])c2)nc2ccc3ccccc3c12 | – | – | 3.16 µM (inconclusive) | AC50 ([9]; read-out: AC50): 20 µM (inconclusive)
24 | Nc1ccc(N=Nc2ccccc2)cc1[N+](=O)[O-] | > 47.1 µM (inactive) | > 53 µM (inactive) | – | –
25 | O=c1cc(CN2CCN(Cc3ccccc3)CC2)c2cc(O)ccc2o1 | > 47.1 µM (inactive) | > 53 µM (inactive) | – | –
26 | O=C(O)c1cc(S(=O)(=O)N2CCCCC2)ccc1F | – | – | 1.26 µM (inconclusive) | –
27 | COC(=O)C(C)Sc1nc(O)c2cnn(-c3ccc(C)cc3)c2n1 (centres undefined) | – | – | 14.1 µM (inconclusive) | AC50 [8]: 3.55 µM (inconclusive); AC50 ([9]; read-out: AC50): 7.94 µM (inconclusive)
28 | COc1cccc(/C(C)=N/NS(=O)(=O)c2ccc(Cl)cc2)c1 | > 47.1 µM (inactive) | > 53 µM (inactive) | – | –
29 | CO[C@@H]1CN(C)C(=O)c2cc(NC(=O)NC3CCCCC3)ccc2OC[C@@H](C)N(CCc2ccccc2)C[C@H]1C | – | – | – | AC50 [14]: 5.84 µM (active)
30 | CC1=C(C(=O)OCc2ccccc2)C(c2ccc3ccccc3c2)NC(=O)N1CCCCCC(=O)O (centres undefined) | – | – | 10 µM (inconclusive) | AC50 [6]: 20 µM (inconclusive); AC50 ([9]; read-out: AC50): 39.8 µM (inconclusive); AC50 [13]: 39.8 µM (inconclusive)
31 | COc1cc(CN2CC3(CCN(C(=O)c4cccnc4)CC3)c3c([nH]c4cc(OC)ccc34)[C@@H]2CO)cc(OC)c1 | – | – | – | AC50 [14]: 5.84 µM (active)
32 | COc1ccc(CN2CC3(CN(C(C)=O)C3)c3c([nH]c4cc(OC)ccc34)[C@@H]2CO)cc1 | – | – | – | AC50 [14]: 9.9 µM (active)
33 | CN1c2ccc(C#Cc3cccnc3)cc2[C@H]2[C@H](CCN2C(=O)C2CCCC2)[C@H]1CO | – | – | – | AC50 [14]: 4 µM (active)
34 | N#Cc1ccc(-c2ccc([C@@H]3[C@@H](CO)N4C(=O)CN(C(=O)C5CCC5)C[C@@H]34)cc2)cc1 | – | – | – | AC50 [14]: 5.38 µM (active)
35 | COc1cccc(C(=O)Nc2ccc3c(c2)C(=O)N(C)C[C@@H](OC)[C@H](C)CN(CCc2ccccc2)[C@H](C)CO3)c1 | – | – | – | AC50 [14]: 4.35 µM (active)
36 | OC[C@H]1CC[C@@H]2O[C@H](CCc3ccc(C#CCc4ccccc4)cc3)[C@@H](n3cc(-c4ccccc4)nn3)C[C@@H]2O1 | – | – | – | AC50 [14]: 6.17 µM (active)
37 | Cc1cccc(C)c1OC[C@@H](N)C(C)C | – | – | 20 µM (inconclusive) | –
